From ChEMBL document CHEMBL1201862, “PubChem BioAssay data set” (2004)
Active and inactive are the calls of the source.

Tests used:
[1] = Shn3 3'UTR reporter inhibitors, dose response, cell-based, Clone20 osteoblasts, firefly luciferase, cherry-picked (AID 624132); assay type: functional;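 also: firefly luciferase luminescence from reporter carrying the Shn3 3'UTR in osteoblasts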
[2] = target: Melanocortin receptor 4 (Homo sapiens, UniProt P32245); assay type: functional, cell-based;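 also: Cell-based assay with luminescence read-out, confirmatory dose-response testing for agonist activity of biased ligands at MC4R; human U2OS cells with tagged receptor and beta-arrestin; potency of agonists that increase receptor coupling to beta-arrestin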
Sequence of Melanocortin receptor 4 (P32245 whole entry): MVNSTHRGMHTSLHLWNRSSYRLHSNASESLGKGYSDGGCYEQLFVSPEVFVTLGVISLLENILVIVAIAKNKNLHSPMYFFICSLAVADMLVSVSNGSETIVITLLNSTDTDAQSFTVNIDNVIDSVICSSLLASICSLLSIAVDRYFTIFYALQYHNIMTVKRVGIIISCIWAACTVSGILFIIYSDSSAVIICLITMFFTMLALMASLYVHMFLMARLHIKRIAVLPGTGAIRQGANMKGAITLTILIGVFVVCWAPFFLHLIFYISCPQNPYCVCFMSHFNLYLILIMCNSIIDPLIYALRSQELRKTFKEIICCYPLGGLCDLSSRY

[3] = HepG2 cell cytotoxicity, dose response, cytotoxicity control for Shn3 inhibitor project, CellTiter-Glo, cherry-picked (AID 624134); assay type: functional, cell-based
[4] = control 3'UTR Renilla luciferase suppression, dose response, counter-screen for Shn3 inhibitor project, cell-based, Clone20-Shn3RL, cherry-picked (AID 624133); assay type: functional
[5] = target: Paired box protein Pax-8 (Homo sapiens, UniProt Q06710); assay: inhibitors of PAX8-driven TPO luciferase reporter, dose response, RMG-I cells, cherry-pick (AID 687027); assay type: functional, cell-based;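 also: luciferase reporter driven by Pax8 target thyroperoxidase promoter measured by SteadyGlo luminescence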
Sequence of Paired box protein Pax-8 (Q06710 whole entry): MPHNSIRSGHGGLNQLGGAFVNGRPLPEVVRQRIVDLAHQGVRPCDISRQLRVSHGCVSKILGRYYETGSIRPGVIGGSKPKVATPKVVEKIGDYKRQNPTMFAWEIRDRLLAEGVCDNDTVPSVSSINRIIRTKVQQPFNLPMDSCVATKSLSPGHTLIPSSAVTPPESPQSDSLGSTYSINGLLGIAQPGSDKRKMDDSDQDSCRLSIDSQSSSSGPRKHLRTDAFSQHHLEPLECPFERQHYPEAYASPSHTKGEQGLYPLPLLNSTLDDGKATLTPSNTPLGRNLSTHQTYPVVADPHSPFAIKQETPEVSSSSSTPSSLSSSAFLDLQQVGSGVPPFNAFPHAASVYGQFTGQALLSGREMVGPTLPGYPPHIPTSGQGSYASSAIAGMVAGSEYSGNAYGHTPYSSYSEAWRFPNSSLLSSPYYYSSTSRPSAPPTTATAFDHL

[6] = inhibitors of PGC1a acetylation in cells, dose response, cell-based, cherry-picked samples (AID 720514); assay type: functional;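 also: potency may reflect raised or lowered acetylation signal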
[7] = non-specific cell cytotoxicity, dose response, cytotoxicity control for PAX8 inhibitor project, plate reader, dry powder samples (AID 743021); assay type: functional, cell-based
[8] = target: Adenosylmethionine-8-amino-7-oxononanoate aminotransferase (Mycobacterium tuberculosis, UniProt P9WQ81); assay: Mycobacterium tuberculosis BioA enzyme inhibitor Measured in Biochemical System Using Plate Reader - 2163-02_Inhibitor_Dose_CherryPick_Activity.; assay type: functional, Mycobacterium tuberculosis UT205
Sequence of Adenosylmethionine-8-amino-7-oxononanoate aminotransferase (P9WQ81 whole entry): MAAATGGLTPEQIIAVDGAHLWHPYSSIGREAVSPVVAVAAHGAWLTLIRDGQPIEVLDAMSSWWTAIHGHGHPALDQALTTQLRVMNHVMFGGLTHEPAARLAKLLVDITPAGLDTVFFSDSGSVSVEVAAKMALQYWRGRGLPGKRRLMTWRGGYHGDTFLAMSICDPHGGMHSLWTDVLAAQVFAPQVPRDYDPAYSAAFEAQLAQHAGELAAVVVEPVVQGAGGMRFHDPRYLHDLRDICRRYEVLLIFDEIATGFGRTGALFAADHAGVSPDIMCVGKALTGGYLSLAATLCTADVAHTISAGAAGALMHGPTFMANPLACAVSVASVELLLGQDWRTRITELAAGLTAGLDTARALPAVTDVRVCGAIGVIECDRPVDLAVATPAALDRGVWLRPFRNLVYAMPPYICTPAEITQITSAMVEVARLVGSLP

[9] = target: Fructose-bisphosphate aldolase (Mycobacterium tuberculosis, UniProt P9WQA3); assay: Fluorescence-based biochemical high throughput dose response assay for inhibitors of the fructose-bisphosphate aldolase (FBA) of M. tuberculosis.; assay type: functional
Sequence of Fructose-bisphosphate aldolase (P9WQA3 whole entry): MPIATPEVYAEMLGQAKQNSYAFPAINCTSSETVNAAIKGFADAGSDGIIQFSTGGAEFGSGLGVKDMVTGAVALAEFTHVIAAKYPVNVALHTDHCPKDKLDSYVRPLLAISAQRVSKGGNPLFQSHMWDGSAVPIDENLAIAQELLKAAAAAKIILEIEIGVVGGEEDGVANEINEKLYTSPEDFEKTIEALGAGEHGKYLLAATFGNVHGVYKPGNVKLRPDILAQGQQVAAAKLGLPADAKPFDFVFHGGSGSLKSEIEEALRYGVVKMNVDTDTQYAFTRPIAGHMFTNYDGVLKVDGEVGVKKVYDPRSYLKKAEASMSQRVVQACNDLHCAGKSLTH

[10] = HepG2 cell cytotoxicity, dose response, cytotoxicity control, cherry-picks, set 5 (AID 1053118); assay type: functional, cell-based
[11] = HEK293 cell cytotoxicity, dose response, cytotoxicity control, cherry-picks, set 5 (AID 1053117); assay type: functional, cell-based
[12] = A549 cell cytotoxicity, dose response, cytotoxicity control, cherry-picks, 26 µM top dose (AID 1053119); assay type: functional, cell-based
[13] = target: Aryl hydrocarbon receptor (Homo sapiens, UniProt P35869); conditions: Potency;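 also: confirmatory quantitative high-throughput screen measuring activation of the AhR signaling pathway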
Sequence of Aryl hydrocarbon receptor (P35869 whole entry): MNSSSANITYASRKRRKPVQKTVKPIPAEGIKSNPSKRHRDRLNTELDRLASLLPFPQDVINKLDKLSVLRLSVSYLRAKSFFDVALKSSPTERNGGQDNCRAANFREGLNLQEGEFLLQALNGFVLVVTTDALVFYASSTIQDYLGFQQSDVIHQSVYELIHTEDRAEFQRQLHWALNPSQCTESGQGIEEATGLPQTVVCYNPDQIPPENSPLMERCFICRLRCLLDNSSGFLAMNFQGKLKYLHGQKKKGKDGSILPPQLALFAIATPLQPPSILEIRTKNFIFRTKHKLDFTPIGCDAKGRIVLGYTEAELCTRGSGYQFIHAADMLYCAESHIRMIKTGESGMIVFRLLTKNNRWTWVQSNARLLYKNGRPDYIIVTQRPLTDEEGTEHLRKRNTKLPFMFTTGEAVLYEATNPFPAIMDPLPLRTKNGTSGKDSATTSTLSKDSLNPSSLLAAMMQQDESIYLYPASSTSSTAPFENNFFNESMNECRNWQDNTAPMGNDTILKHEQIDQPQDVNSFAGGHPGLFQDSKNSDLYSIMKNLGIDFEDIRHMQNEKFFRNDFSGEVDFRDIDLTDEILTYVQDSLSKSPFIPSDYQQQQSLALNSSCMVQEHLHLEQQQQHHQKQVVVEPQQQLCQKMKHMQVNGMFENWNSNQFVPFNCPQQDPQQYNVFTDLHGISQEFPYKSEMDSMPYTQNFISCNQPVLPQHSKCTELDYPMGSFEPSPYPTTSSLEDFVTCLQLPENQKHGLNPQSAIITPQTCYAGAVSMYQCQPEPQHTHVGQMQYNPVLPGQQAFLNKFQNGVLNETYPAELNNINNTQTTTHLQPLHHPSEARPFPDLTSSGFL

CCN1CCN(Cc2ccc(NC(=O)c3cc(NC(=O)c4cncc(-c5ccc(C#N)cc5)c4)cc(OC)c3)cc2C(F)(F)F)CC1
AC50 [1]: 3.36 µM (active)
EC50 [2]: > 89.2 µM (inactive)
AC50 [3]: 8.15 µM (active)
AC50 [4]: 7.18 µM (active)
AC50 [5]: 7.76 µM (active)
AC50 [6]: 6.66 µM (active)
AC50 [7]: 48.2 µM (active)

O=C(Cc1ccccc1)N1CC[C@@H]2[C@H]1c1cc(Br)ccc1N[C@@H]2CO
AC50 [8]: 2.74 µM (active)

COc1ccc(OC)c2c1C(=O)CC2C (centres undefined)
IC50 [9]: 2.23 µM (active)

CCNC(=O)[C@H]1[C@H](CO)[C@H]2Cn3c(ccc(-c4cccc(F)c4)c3=O)[C@H]2N1C(=O)Cc1cccnc1
AC50 [8]: 17 µM (active)

CO[C@H]1CN(C)C(=O)c2ccc(NC(=O)c3ccc(-c4ccccc4)cc3)cc2OC[C@H](C)NC[C@@H]1C
AC50 [6]: 31.9 µM (active)
AC50 [10]: > 52 µM (inactive)
AC50 [11]: > 52 µM (inactive)
AC50 [12]: > 52 µM (inactive)

CO[C@H]1CN(C)C(=O)c2cc(NC(=O)Nc3cc(Cl)cc(Cl)c3)ccc2OC[C@H](C)NC[C@H]1C
AC50 [10]: 16.6 µM (active)
AC50 [11]: 34.3 µM (active)
AC50 [12]: > 52 µM (inactive)

O=C(Nc1ccccc1)Nc1cnns1 [THIDIAZURON]
AC50 [13]: 50.1 µM (inconclusive)

O=P(OCC(Br)CBr)(OCC(Br)CBr)OCC(Br)CBr (centres undefined) [TRIS(2,3-DIBROMOPROPYL)PHOSPHATE]
AC50 [13]: 56.2 µM (inconclusive)
